Measured values: patent publication EP3852878B1, “DICYCLANIL SALT WITH DODECYLBENZENESULFONATE AND USE OF SUCH A SALT IN COMBATING PARASITES” (ICB Pharma Spólka Jawna, priority 2018, dated 2020)

Key:
[1] = Comparative solubility tests in water (10% aqueous dispersion mixed, filtered, dicyclanil determined in the filtrate by HPLC); type: physicochemical; conditions: laboratory mixer, 20 °C
Procedure: To document the unexpectedly low water solubility of the present salt, i.e. dicyclanil dodecylbenzenesulfonate, comparative solubility tests were carried out after 4 and 24 hours of mixing of 10% aqueous dispersion of the present salt, as well as free dicyclanil alone, in a laboratory mixer at 20 °C, after which the sample was filtered and the free/bound dicyclanil was determined in a filtrate by a HPLC method.

[2] = cited from earlier work

In the case of `N#Cc1c(N)nc(NC2CC2)nc1N` [Technical dicyclanil TC 99.0%, 4,6-diamino-2-cyolopropylaminopyrimidine-5-carbonitrile], the “Solubility in water after 4 h of mixing” value [1] is given as 0.312% and the solubility in water ([2]; at 20 °C) is given as “approximately 0.3 % by weight”.

In the case of `CS(=O)(=O)O.N#Cc1c(N)nc(NC2CC2)nc1N` [salt with methanesulfonic acid], the solubility ([2]; in water, known dicyclanil salt) is listed as over 5%.

For “4,6-diamino-2-cyclopropylaminopyrimidine-5-carbonitrile dodecylbenzenesulfonate”, the “Solubility in water after 4 h of mixing” value [1] was 0.0490% and the “Solubility in water after 24 h of mixing” value ([1]; 24 h) was 0.0495%.
